Laboratory results published in patent US20220333078A1, “Method for ex vivo expansion CD34+HSPCs into NK cells using an aryl hydrocarbon receptor antagonist” (Stichting Radboud universitair medisch centrum, priority 2015, published 2022).

Tests used:
HSPC-NK cells = assay: Proliferation (CFSE dilution) and viability of HSPC-NK cells cultured 7 days with MPA or CsA; type: cell-based, human
Experimental: HSPC-NK cells were cultured according to our culture protocol for 35 days. After 35 days, NK cells were labeled with 1 μM CFSE as described previously. After staining, cells were resuspended in differentiation medium at a concentration of 2E+6/mL and plated in duplicate in a 96-well plate. […] After 7 days, cells were harvested. The number of viable target cells was quantified by FCM by gating on forward scatter and side scatter and exclusion of 7-AAD positive cells. Proliferation was analyzed by determining the CFSE dilution within CD56+ cells.

K562 cells = assay: K562 killing and IFN-γ production by NK cells cultured in the presence of MPA or CsA; type: cell-based, human
Experimental: Cell lines were labeled with 1 μM carboxyfluorescein diacetate succinimidyl ester (CFSE; Molecular Probes Invitrogen, Eugene, Oreg., USA) and primary AML blasts were labeled with 1.5 μM CFSE, both in a concentration of 1E+7/mL for 10 minutes at 37° C. The reaction was terminated by adding an equal volume of FCS. After washing, cells were resuspended in IMDM/10% FCS to a final concentration of 3E+5/mL. Target cells (3E+4) were co-cultured in triplicate with effector cells at different effector:target (E:T) ratios in a total volume of 200 μL IMDM/10% FCS in 96-wells round-bottom plates (Corning Incorporated). Effector cells and target cells alone were plated out in triplicate as controls. […] Cells were harvested and the number of viable target cells was quantified by FCM by gating on forward scatter and side scatter and exclusion of 7-AAD positive cells. Target cell survival was calculated as follows: % survival=([absolute number of viable CFSE+ target cells co-cultured with NK cells]/[absolute number of viable CFSE+ target cells cultured in medium])×100%. The percentage specific lysis was calculated as follows: % lysis=(100−[% survival]), as described earlier by Jedema et al. Degranulation of NK cells during overnight co-culture was determined as the percentage of CD107a expressing cells measured by FCM. […]

[1] = test system: G-CSF mobilized CD34+HSPCs; assay: Ex vivo cytokine-based expansion and NK cell differentiation of G-CSF mobilized peripheral blood CD34+HSPCs with or without 2 μM SR1; parameters: species or system human
Experimental: (§1) Bone marrow samples were collected from healthy donors after written informed consent. Bone marrow-derived mononuclear cells (BM-MNCs) were isolated by Ficoll-hypaque (1.077 g/mL; GE Healthcare, Uppsala, Sweden) density gradient centrifugation. Peripheral blood-derived mononuclear cells (PB-MNCs) were obtained from aphaeresis material from stem cell donors who were treated with G-CSF (Neupogen®) 10 μg/kg/day subcutaneously for 5 to 6 days, after written informed consent. CD34+HSPCs were isolated using anti-CD34 immunomagnetic beads (Miltenyi Biotech, Bergisch Gladbach, Germany) according to manufacturer's instructions. CD34+HSPCs were directly used for NK cell generation.
CD34+HSPCs were plated into 24-well or 6-well tissue culture plates (Corning Incorporated, Corning, N.Y., USA). Cells were expanded during 9 or 10 days with a high-dose cytokine cocktail (Expansion cocktail I) consisting of 25 ng/mL IL-7 (Immunotools), 25 ng/mL SCF (Immunotools), 25 ng/mL TPO (Cellgenix) and 25 ng/mL Flt3L (Immunotools). From day 9 or 10 until day 14 or 15, TPO was replaced by 20 ng/mL IL-15 (Miltenyi). After day 14 or 15, cell differentiation was initiated by replacing Expansion cocktail I by a new high-dose cytokine cocktail (Differentiation cocktail) consisting of 20 ng/mL IL-7, 20 ng/mL SCF, 20 ng/mL IL-15 and 1000 U/mL IL-2 (Proleukin®; Chiron, München, Germany). Where mentioned, 2 μM StemRegenin1 (SR1; Cellagen Technology, San Diego, Calif., USA) was added to the culture medium (see FIG. 1A). Cells were cultured in Cellgro GMP DC medium (Cellgenix, Freiburg, Germany) supplemented with 10% human serum (HS; Sanquin Bloodbank, Nijmegen, The Netherlands) and a low dose cytokine cocktail consisting of […] G-CSF (Filgrastim, “Neupogen”—Amgen Corp. USA), 10 μg/mL GM-CSF and 50 μg/mL IL-6 (both Immunotools, Friesoythe, Germany). During the first 14 or 15 days of culture, low molecular weight heparin (Clivarin®; Abbott, Wiesbaden, Germany) was added to the medium in a final concentration of 20 μg/mL. Freshly isolated CD34+ cells were plated at a concentration of 1-4E+5/mL. After 3 days of culture, cells were transferred to a new plate in order to deplete for stromal cells. From day 14 or 15 onward, cell counts were kept above 2E+6 cells/mL. Cell cultures were refreshed with at least 30% new medium every 2 to 3 days. Cultures were maintained at 37° C., in 95% humidity, and 5% CO2. NK cells were used in experiments after 5 weeks of culture.
(§2) Cell numbers and expression of cell-surface markers were determined by FCM. Anti-human CD45-ECD (J.33, Beckman Coulter, Woerden, The Netherlands) and anti-CD56-PC7 (HCD56, Biolegend, San Diego, Calif., USA) antibodies were used to follow cell number and NK cell differentiation during culture using the Coulter FC500 flow cytometer (Beckman Coulter). The population of viable CD45+ cells was determined by exclusion of 7-AAD (Sigma, St Louis, Mo., USA) positive cells. For phenotypical analysis, cells were incubated with antibodies in FCM buffer (PBS/0.5% bovine serum albumin (BSA; Sigma) for 30 minutes at 4° C. After washing, cells were resuspended in FCM buffer and analyzed. The following conjugated monoclonal antibodies were used for NK cell phenotyping: anti-NKG2A-PE (Z199; Beckman Coulter), anti-DNAM-1-FITC (DX 11; BD Biosciences Pharmingen, Breda, The Netherlands), anti-CD16-FITC (3G8), anti-CD3-FITC (UCHT1), anti-NKG2D-PE (1D11), anti-NKp30-PE (P30-15), anti-NKp44-PE (P44-8), anti-NKp46-PD (9E5), anti-CD158b-PE (Dx27), anti-CD158e-PE (Dx9), anti-CD158a/h-PE (HP-MA4), anti-CD62L-PE (DREG56), anti-CD253-PE (RIK-2), anti-CXCR3-PE (G025H7), anti-CXCR4-PE (12G5), anti-IgG1-PE (MOPC-21), anti-IgG2a-PE (MOPC-173), anti-IgG2b-PE (MCP-11), anti-IgG1-FITC (MOPC-21; all from Biolegend).

BM-derived CD34+HSPCs = assay: Ex vivo cytokine-based expansion and NK cell differentiation of bone marrow-derived CD34+HSPCs with or without 2 μM SR1; parameters: species or system human
Experimental: as §1
CD34+HSPCs were plated into 24-well or 6-well tissue culture plates (Corning Incorporated, Corning, N.Y., USA). Cells were expanded during 9 or 10 days with a high-dose cytokine cocktail (Expansion cocktail I) consisting of 25 ng/mL IL-7 (Immunotools), 25 ng/mL SCF (Immunotools), 25 ng/mL TPO (Cellgenix) and 25 ng/mL Flt3L (Immunotools). […]
as §2, with “Anti-human CD45-ECD (J.33, Beckman Coulter, Woerden, The Netherlands) and anti-CD56-PC7 (HCD56, Biolegend, San Diego, Calif., USA) antibodies were used to follow cell number and NK cell differentiation during culture using the Coulter FC500 flow cytometer (Beckman Coulter).” left out

AhR = assay: qRT-PCR of AhRR and NK cell transcription factors in HSPC-NK cultures with or without SR1; type: cell-based, human
Experimental: Total RNA from 0.5-2E+5 cells, collected weekly from HSPC-NK cell cultures, was isolated using the Quick-RNA™ MicroPrep Kit (Zymo Research, CA, USA). Next, cDNA was synthesized using M-MLV-reverse transcriptase (Invitrogen) in a standard reaction as described before, after which real-time PCR was performed using the following Taqman Gene expression assays (Applied Biosystems, Forster City, Calif., USA): AhRR (Hs01005075_m1); TOX (Hs01055573_m1); ID2 (Hs04187239_m1); EOMES (Hs00172872_m1); GATA3 (Hs00231122_m1); SH2D1B (Hs01592483_m1); IFNG (Hs00989291_m1); GZMB (Hs01554355_m1); PRF1 (Hs99999108_m1). For all genes, Ct values were normalized to GAPDH (Hs02758991_g1) by calculating ΔCt=Cttarget gene−CtGAPDH per sample. Finally, gene expression levels were quantified relative to GAPDH as follows: 2^(−[ΔCt]).
After 5 weeks of culture, CD56+ cells were isolated from the total cultured cells. For this purpose cells were stained for 15 minutes at 4° C. using the appropriate concentration of anti-CD56-PEcy7 (CD56-PC7 (HCD56, Biolegend). Cells were washed and resuspended in FACS buffer at a concentration of 1.5E+6/mL, and subsequently sorted at the FACSAria Cell Sorter (BD Biosciences).

CD56+NK cells = assay: FCM phenotype of CD56+NK cells after 35 days of culture; type: cell-based, human; conditions: generated in the presence vs absence of SR1
Experimental: as §2

[2] = test system: CD34+ cells enriched from UCB, BM and mobilized blood; assay: SR1-based culture without heparin and low dose cytokines (UCB, BM and mobilized blood CD34+ cells); type: cell-based, human
Text: Representation of the new ex vivo SR1-based culture protocol used for the generation of NK cells. In the expansion step, CD34+ cells are expanded and differentiated into NK progenitors using SCF, Flt3L, IL-7, TPO and an aryl hydrocarbon antagonist, preferably SR1. Thereafter, NK progenitors are further differentiated using IL-15, IL-12 and/or IL-2.
In earlier studies, we exploited a phased based addition of cytokines in heparin-based basal media (5-7). Heparin is able to bind certain cytokines, reducing their degradation and perhaps presenting them in a more physiological manner. Furthermore, low dose cytokine cocktail containing G-CSF, GM-CSF and IL-6 was being used, which was based on studies using the fetal liver-derived stromal cell line AFT024 [59]. Since we observed that the AhR antagonist is a crucial component for the ex vivo expansion of NK cells from BM and mobilized blood CD34+HSPCs, we investigated whether we could simplify the culture method by leaving out heparine and low dose cytokines G-CSF, GM-SCF and IL-6 that have mainly an effect on myeloid progenitor cells (see FIG. 7).

CD34+UCB cells = conditions: after 25 days of culture with IL-1β; cited from earlier work
[3] = FACS-sorted CD56+NK cells after 5 weeks, SR1 vs no SR1

Molecule: COc1c(C)c2c(c(O)c1C/C=C(\C)CCC(=O)O)C(=O)OC2 [MPA, mycophenolic acid]
- proliferation of HSPC-NK cells (HSPC-NK cells; MPA 0.1 μg/ml): already inhibited
- NK cell viability (HSPC-NK cells; MPA 0.1 to 10 μg/mL or CsA 0.01 to 1 μg/mL): induced dose-dependent cell death
- NK cell-mediated killing of K562 cells (K562 cells; NK cells cultured with drug, overnight, E:T 1:1): impaired killing
- IFN-γ production (K562 cells; NK cells incubated with drug, overnight co-culture with K562, E:T 1:1): impaired IFN-γ production

Molecule: CC(C)n1cnc2c(NCCc3ccc(O)cc3)nc(-c3csc4ccccc34)nc21 [SR1, StemRegenin 1]
- Mean NK cell yield after 5 weeks of culture ([1]; G-CSF mobilized CD34+ cells, 2 μM SR1, range 115-904 fold, n=10): 235 fold
- purity (NK cell differentiation, CD56+) ([1]; G-CSF mobilized CD34+HSPCs, with SR1, 5 weeks): 83%±9%
- expansion of CD34+ cells ([1]; PB-derived HSPCs, addition of 2 μM SR1 vs no SR1): strongly enhanced expansion of CD34+ cells
- amount of CD3+ T cells ([1]; SR1-based NK cell cultures): 0.1%±0.1%
- average expansion of G-CSF-mobilized CD34+ cells ([1]; SR1-based protocol): 268 fold
- frequency of CD34+ cells at the end of the culture process ([1]; SR1 cultures): 0.7%±0.4%
- remaining non-NK cells: CD14+ and/or CD15+ mature monocytic and myelocytic cells ([1]; SR1 cultures, end of culture): 11%±6%
- purity (NK cell differentiation, CD56+) (BM-derived CD34+HSPCs; BM-derived CD34+ cells, with SR1, 5 weeks): 84%±18%
- Mean NK cell yield after 5 weeks of culture (BM-derived CD34+HSPCs; BM-derived CD34+HSPCs, 2 μM SR1, range 33-301, n=4): 129 fold
- expansion of CD34+ cells (BM-derived CD34+HSPCs; BM-derived HSPCs, addition of 2 μM SR1 vs no SR1): strongly enhanced expansion of CD34+ cells
- IFN-γ mRNA expression (AhR; FACS-sorted CD56+NK cells after 5 weeks, not exposed to target cells, SR1 vs no SR1): not increased
- GATA-3 and EAT-2 expression (AhR; [3]): similar
- GZMB and PERF expression (AhR; [3]): slightly higher, but not significantly increased
- TOX, ID2 and EOMES expression (AhR; [3]): did not observe increased expression
- AhRR expression relative to GAPDH (AhR; total cells, 2 μM SR1 vs no SR1): efficient down regulation
- EOMES expression relative to GAPDH (AhR; total cells, SR1 vs no SR1): upregulated from week three onward
- GATA-3 and EAT-2 (SH2D1B) expression relative to GAPDH (AhR; total cells, SR1 vs no SR1): increased in cells cultured in the presence of SR1
- ID2 expression relative to GAPDH (AhR; total cells, SR1 vs no SR1): increased from day 14 onwards
- TOX expression relative to GAPDH (AhR; total cells, from day 7 onward, SR1 vs no SR1): higher expression
- presence of CD62L, CXCR3, DNAM-1 and TRAIL on CD56+ cells (CD56+NK cells): significantly higher
- expansion of CD56+NK cells from CD34+ cells ([2]; 2 μM SR1 for 21 days, no heparin, G-CSF, GM-CSF, IL-6): promotes the expansion of CD56+NK cells
- remaining non-NK cells, mainly CD14+ monocytic cells ([2]; SR1-based cultures without heparin and low dose cytokines): < 20%

Molecule: IL-1β: cytokine added at the beginning of CD34+UCB culture in the protocol of Ambrosini et al.
- overall percentage of CD56+NK cells expressing CD161, LFA1, NKG2A, NKp46, EOMES and perforin (CD34+UCB cells): < 20%
